One series deals with Escherichia coli. Put plainly: Antibacterial activity of modified PET cloth by plate counting method. Type of series: cell-based. On the set-up: Antibacterial activity, Washing one time: concentration or dose not given beside the values. The following applies: E. coli. How it is done: (§1) The antibacterial hydrophilic compounds obtained in Examples 1-29 may be formulated into a finishing liquid having a mass concentration of 0.1-10% using water as a solvent, and the PET cloth may be impregnated and modified by the finishing liquid. After irradiation for 1 minute at ultraviolet light (wavelength: 254 nm), the antibacterial activity against Escherichia coli and Staphylococcus aureus may be tested by plate counting method, and their hydrophilicity (water contact angle of untreated PET may be 92 degrees) may be tested.

The test system of the next series is Staphylococcus aureus. The series is described as above. It counts as cell-based. The arrangement: Antibacterial activity, Washing one time: concentration or dose not given beside the values. The following applies: S. aureas. How it is done:
as §1

Series [1] is described as follows: Hydrophilicity (water contact angle) of modified PET cloth. It counts as physicochemical. The following applies: for Contact angel: water contact angle of PET cloth modified with finishing liquid, UV 254 nm 1 minute, untreated PET 92 degrees. How it is done: as §1
FIG. 3 illustrates a change in a contact angle of PET cloth treated or untreated by an antibacterial hydrophilic compound according to Example 13 of the present disclosure, where section (A) is a photograph of untreated PET cloth, and section (B) is a photograph of treated PET clot.

Series [2] in a line: Hydrophilicity (core height) of modified PET cloth, FIG. 5. Particulars: modified PET cloth (B) vs unmodified PET (A). It counts as physicochemical. The source says: FIG. 5 is a diagram illustrating hydrophilicity of PET cloth treated with an antibacterial hydrophilic compound according to Example 1 of the present disclosure.

Regarding `CCOP(=O)([O-])OCC[N+](C)(C)Cc1ccc(C(=O)c2ccccc2)cc1` [Example 3], the entries for the “Antibacterial activity, Washing 50 times” value with Escherichia coli and in the series on Staphylococcus aureus were 87.8% and 90.2%, respectively. The “Antibacterial activity, Washing one time” value in the series on Escherichia coli and in the series with Staphylococcus aureus was 99.99% in each case. In series [1], this molecule had a Contact angel of 0 degrees.

For the molecule `C[N+](C)(CCCS(=O)(=O)[O-])c1ccc(C(=O)c2ccc([N+](C)(C)CCCS(=O)(=O)[O-])cc2)cc1` [Example 1], in the series on Escherichia coli, the “Antibacterial activity, Washing 50 times” value amounted to 88.5% and the “Antibacterial activity, Washing one time” value turned out to be 99.99%. For the same molecule, in the series with Staphylococcus aureus, the “Antibacterial activity, Washing 50 times” value came to 92.9% and the “Antibacterial activity, Washing one time” value came to 99.99%. Further, in series [1], the Contact angel worked out at 0 degrees. Moreover, the “core height vs unmodified PET” value in series [2] was “significantly greater”.

Turning to `C[N+](C)(CCC(=O)[O-])c1ccc(C(=O)Oc2ccc(C(=O)c3ccccc3)cc2)cc1` [Example 4], in the series with Escherichia coli, the “Antibacterial activity, Washing 50 times” value worked out at 86.9% and the “Antibacterial activity, Washing one time” value came out at 99.99%. For the same molecule, in the series on Staphylococcus aureus, the “Antibacterial activity, Washing 50 times” value stood at 80.9% and the “Antibacterial activity, Washing one time” value came to 99.99%. In series [1], this molecule displayed a Contact angel of 0 degrees.

In the case of `C[N+](C)(CCCCS(=O)(=O)[O-])CCOc1ccc(C(=O)c2ccccc2)cc1` [Example 2], in the series with Escherichia coli, the “Antibacterial activity, Washing 50 times” value is on record as 86.2% and the “Antibacterial activity, Washing one time” value is recorded as 99.99%. Moreover, the “Antibacterial activity, Washing 50 times” value in the series with Staphylococcus aureus is recorded as 89.9%. In series [1], this molecule registered a Contact angel of 0 degrees.

`CCCCCCCCCCCC[N+](C)(C)c1ccc(C(=O)Oc2ccc(C(=O)c3ccccc3)cc2)cc1` [Example 13]: in the series on Escherichia coli, the “Antibacterial activity, Washing 50 times” value is on record as 91.7% and the “Antibacterial activity, Washing one time” value worked out at 99.99%. In the series on Staphylococcus aureus, the “Antibacterial activity, Washing 50 times” value came to 96.9% and the “Antibacterial activity, Washing one time” value is on record as 99.99%. For the same molecule, the “water contact angle of the treated PET cloth” value in series [1] (FIG. 3, untreated PET cloth 92 degrees) is recorded as 0 °. The molecule also yielded a Contact angel in series [1] of 0 degrees.

For the molecule `CC1(C)C(=O)N(CC(O)CNCc2ccc(C(=O)c3ccccc3)cc2)C(=O)N1Cl` (centres unmarked) [Example 28], in the series on Escherichia coli, the “Antibacterial activity, Washing 50 times” value is 95.1% and the “Antibacterial activity, Washing one time” value is 99.99%. In the series with Staphylococcus aureus, the “Antibacterial activity, Washing 50 times” value is 99.9% and the “Antibacterial activity, Washing one time” value was 99.99%. The molecule also showed a Contact angel in series [1] of 40 degrees.

For `CCCCCCCCCCCC[N+](C)(C)Cc1ccc(C(=O)c2ccccc2)cc1` [Example 14], in the series on Escherichia coli, the “Antibacterial activity, Washing 50 times” value worked out at 91.7% and the “Antibacterial activity, Washing one time” value turned out to be 99.99%. Besides, in the series on Staphylococcus aureus, the “Antibacterial activity, Washing 50 times” value came out at 96.9% and the “Antibacterial activity, Washing one time” value came out at 99.99%. For the same molecule, the Contact angel in series [1] is reported as 0 degrees.

Consider `CCCCCCCCCC[N+](C)(C)Cc1ccc2c(c1)C(=O)c1ccccc1C2=O` [Example 16], for which the “Antibacterial activity, Washing 50 times” value in the series with Escherichia coli stood at 91.7%; in the series with Staphylococcus aureus, 98.5%. Also, the “Antibacterial activity, Washing one time” value with Escherichia coli worked out at 99.99%. In series [1], the Contact angel is reported as 0 degrees.

Turning to `C[N+](C)(CCS(=O)(=O)[O-])Cc1ccc(C(=O)c2ccccc2)cc1` [Example 6], in the series on Escherichia coli, the “Antibacterial activity, Washing 50 times” value is recorded as 86.6% and the “Antibacterial activity, Washing one time” value is given as 99.99%. Further, the “Antibacterial activity, Washing 50 times” value in the series on Staphylococcus aureus turned out to be 89.7%. This molecule also had a Contact angel in series [1] of 0 degrees.

Turning to `CC1(C)C(=O)N(Cc2ccc(C(=O)c3ccccc3)cc2)C(=O)N1Cl` [Example 27], in the series with Escherichia coli, the “Antibacterial activity, Washing 50 times” value was found to be 94.9% and the “Antibacterial activity, Washing one time” value is listed as 99.99%. Further, the “Antibacterial activity, Washing 50 times” value in the series on Staphylococcus aureus was determined as 99.8%. This molecule also showed a Contact angel in series [1] of 50 degrees.

Consider `CCCCCCCC[N+](C)(C)Cc1cn(Cc2ccc(C(=O)c3ccccc3)cc2)nn1` [Example 19], for which the “Antibacterial activity, Washing 50 times” value stood at 92.8% in the series on Escherichia coli and 99.6% in the series on Staphylococcus aureus. Also, the “Antibacterial activity, Washing one time” value in the series on Escherichia coli and in the series on Staphylococcus aureus was 99.99% in each case. In addition, in series [1], the Contact angel stood at 0 degrees.

Regarding `CC1(C)C(=O)N(COC(=O)Nc2ccc(C(=O)c3ccccc3)cc2)C(C)(C)N1Cl` [Example 26], in the series on Escherichia coli, the “Antibacterial activity, Washing 50 times” value turned out to be 97.9% and the “Antibacterial activity, Washing one time” value was 99.99%. Also, the “Antibacterial activity, Washing 50 times” value in the series with Staphylococcus aureus came to 99.9%. Further, in series [1], the Contact angel is on record as 45 degrees.

As to `CCCCCCCCCCCC[N+](C)(C)CCOC(=O)Nc1ccc(C)c(NC(=O)Nc2ccccc2C(=O)c2ccc(Cl)cc2)c1` [Example 18], the “Antibacterial activity, Washing 50 times” value was 95.8% with Escherichia coli and 99.9% with Staphylococcus aureus. The “Antibacterial activity, Washing one time” value in the series on Escherichia coli and with Staphylococcus aureus was 99.99% throughout. In series [1], this molecule displayed a Contact angel of 0 degrees.

In the case of `CCCCCCCC[N+](C)(C)CCOC(=O)Nc1ccc(C(=O)c2ccccc2)cc1.[Br-]` [Example 11], in the series with Escherichia coli, the “Antibacterial activity, Washing 50 times” value turned out to be 92.8% and the “Antibacterial activity, Washing one time” value was 99.99%. Besides, in the series with Staphylococcus aureus, the “Antibacterial activity, Washing 50 times” value came out at 99.9% and the “Antibacterial activity, Washing one time” value worked out at 99.99%. Also, the Contact angel in series [1] was 0 degrees.

For `CCCCCCCCCC[N+](C)(C)Cc1ccc(C(=O)c2ccc(C[N+](C)(C)CCCCCCCCCC)cc2)cc1` [Example 15], in the series on Escherichia coli, the “Antibacterial activity, Washing 50 times” value came to 96.8% and the “Antibacterial activity, Washing one time” value was 99.99%. The “Antibacterial activity, Washing 50 times” value in the series with Staphylococcus aureus stood at 99.9%. Besides, the Contact angel in series [1] came to 0 degrees.

Values taken from patent US11503828B2, “Antibacterial hydrophilic compound and use thereof” (SHENZHEN UNIVERSITY, priority 2017, dated 2022).
